Experimental data taken from PubChem BioAssay AID2004 (Sanford-Burnham Center for Chemical Genomics, 2009).

Molecular target: Dual specificity protein phosphatase 3 (Homo sapiens) (UniProt P51452)
Assay: PubChem AID 2004
Settings: recombinant VHR phosphatase, colorimetric substrate read-out

Sequence of Dual specificity protein phosphatase 3 (Homo sapiens) (P51452 whole entry, looked up): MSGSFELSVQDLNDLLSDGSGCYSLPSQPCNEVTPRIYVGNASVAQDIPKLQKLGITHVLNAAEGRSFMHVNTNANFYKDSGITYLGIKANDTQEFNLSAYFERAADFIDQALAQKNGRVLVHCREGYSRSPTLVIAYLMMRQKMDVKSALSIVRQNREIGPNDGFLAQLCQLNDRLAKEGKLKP

SMILES | Ki
S=C(Nc1ccc2c(c1)oc1ccccc12)Nc1cccc2ccccc12 | 2.94 µM
O=C(/C=C/c1ccco1)/C=C/c1ccc(-c2ccc(Cl)c(Cl)c2)o1 | 15.9 µM
O=c1[nH]c(=S)n(-c2cccc(Cl)c2)c(O)c1/C=C1/C=CC=N1 | 3.49 µM
O=C(/C=C/c1ccc(-c2ccccc2[N+](=O)[O-])o1)Nc1ccc(-c2nc3ccccc3o2)cc1 | 1.76 µM
COc1ccc(OC)c2c1C(=O)c1ccccc1C2=O | 3.07 µM
CC1=C(C#N)c2nc(N)c(C#N)c(C)c2/C1=C/c1ccc(-c2ccc(C(=O)O)c(Cl)c2)o1 | 3.87 µM
Cc1ccc(C)n1-c1ccc(SCC(=O)O)cc1 | 2.09 µM
C=CCN1C(=O)/C(=C\C=C\c2ccco2)C(=O)NC1=S | 15.8 µM
CCOC(=O)c1[nH]nc2c1C(=O)N(c1ccc(Br)cc1)C2=O | 2.64 µM
O=C1NC(=S)N(c2ccc(F)cc2)C(=O)/C1=C/c1ccc(Br)o1 | 12.1 µM
O=C(O)c1cccc(-c2ccc(/C=N/Nc3ccc([N+](=O)[O-])cn3)o2)c1 | 13.8 µM
O=C1c2cccc3c4ccccc4n(c23)C(=O)C1(O)O | 13.8 µM
O=C1C(Cl)=C/C(=N\S(=O)(=O)c2ccc(Cl)cc2)C(Cl)=C1Cl | 13.4 µM
O=C1NC(=O)N(c2cccc(Br)c2)C(=O)/C1=C/c1ccc(-c2ccc(C(=O)O)cc2)o1 | 16.2 µM
O=C1/C(=C/C=C/c2ccccc2)SC(=S)N1CCS(=O)(=O)O | 0.809 µM
O=C(O)C(Cc1ccccc1)N1C(=O)/C(=C/C=C/c2ccccc2)SC1=S (stereo not drawn) | 2.01 µM
Cc1ccc(C)n1-c1ccc(C(=O)O)c(O)c1 | 12.8 µM
COc1ccc(N2C(=O)/C(=C/c3ccc(I)o3)C(=O)NC2=S)cc1 | 4.44 µM
